From PubChem BioAssay AID330 (DTP/NCI, 2004)
“And” between values parts separate entries of the source, which are not always exact repeats. Equal values may be shown once. Toxic doses and inconclusive results are not listed.

System: P388 leukemia ip, CD2F1 mice, survival T/C
Assay: NCI In Vivo Anticancer Drug Screen. Data for tumor model P388 Leukemia (intraperitoneal) in CD2F1 (CDF1) mice
Conditions: endpoint: median survival time, higher = longer survival
Method in brief: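 Mice carrying the transplanted tumor received test compound or vehicle. Survival was recorded in each group, and the value is the treated-group measurement divided by that of the vehicle-treated control group.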

[1] = dose: 50.0 mg/kg/injection, schedule: Q01DX009 (ip), vehicle: saline with Tween-80
[2] = dose: 100.0 mg/kg/injection, schedule: Q01DX009 (ip), vehicle: saline with Tween-80
[3] = dose: 200.0 mg/kg/injection, schedule: Q01DX009 (ip), vehicle: saline with Tween-80
[4] = dose: 50.0 mg/kg/injection, schedule: Q01DX009 (ip), vehicle: Klucel (hydroxypropylcellulose) (HPC)
[5] = dose: 100.0 mg/kg/injection, schedule: Q01DX009 (ip), vehicle: Klucel (hydroxypropylcellulose) (HPC)
[6] = dose: 50.0 mg/kg/injection, schedule: Q01DX005 (ip), vehicle: saline with Tween-80
[7] = dose: 100.0 mg/kg/injection, schedule: Q01DX005 (ip), vehicle: saline with Tween-80
[8] = dose: 200.0 mg/kg/injection, schedule: Q01DX005 (ip), vehicle: saline with Tween-80
[9] = dose: 200.0 mg/kg/injection, schedule: Q01DX009 (ip), vehicle: Klucel (hydroxypropylcellulose) (HPC)
[10] = dose: 50.0 mg/kg/injection, schedule: Q01DX005 (ip), vehicle: Klucel (hydroxypropylcellulose) (HPC)
[11] = dose: 100.0 mg/kg/injection, schedule: Q01DX005 (ip), vehicle: Klucel (hydroxypropylcellulose) (HPC)
[12] = dose: 200.0 mg/kg/injection, schedule: Q01DX005 (ip), vehicle: Klucel (hydroxypropylcellulose) (HPC)
[13] = dose: 400.0 mg/kg/injection, schedule: Q01DX009 (ip), vehicle: saline with Tween-80

Compound: O=NNc1cnc(Br)cn1
- T/C (dose: 3.13 mg/kg/injection, schedule: Q01DX009 (ip), vehicle: water): 97 % of control
- T/C (dose: 6.25 mg/kg/injection, schedule: Q01DX009 (ip), vehicle: water): 101 % of control
- T/C (dose: 12.5 mg/kg/injection, schedule: Q01DX009 (ip), vehicle: water): 105 % of control and 108 % of control
- T/C (dose: 25.0 mg/kg/injection, schedule: Q01DX009 (ip), vehicle: water): 108 % of control and 118 % of control
- T/C (dose: 100.0 mg/kg/injection, schedule: Q01DX009 (ip), vehicle: water): 167 % of control

Compound: COc1ccccc1[N+]([O-])=NC#N
- T/C (dose: 6.25 mg/kg/injection, schedule: Q04DX003 (ip), vehicle: Klucel (hydroxypropylcellulose) (HPC)): 107 % of control
- T/C (dose: 12.5 mg/kg/injection, schedule: Q04DX003 (ip), vehicle: Klucel (hydroxypropylcellulose) (HPC)): 111 % of control
- T/C (dose: 25.0 mg/kg/injection, schedule: Q04DX003 (ip), vehicle: Klucel (hydroxypropylcellulose) (HPC)): 99 % of control

Compound: COc1cc(CO)c(CO)cc1OC
- T/C (dose: 0.75 mg/kg/injection, schedule: Q01DX005 (ip), vehicle: saline): 93 % of control
- T/C (dose: 1.5 mg/kg/injection, schedule: Q01DX005 (ip), vehicle: saline): 95 % of control
- T/C (dose: 3.0 mg/kg/injection, schedule: Q01DX005 (ip), vehicle: saline): 93 % of control
- T/C (dose: 3.12 mg/kg/injection, schedule: Q01DX005 (ip), vehicle: saline): 98 % of control

Compound: O=C(O)CCCCC1SCC2NC(=O)NC21 (stereo not given)
- T/C [1]: 100 % of control
- T/C [2]: 108 % of control
- T/C [3]: 108 % of control

Compound: COC(=O)Nc1cn2ccc(Sc3ccccc3)cc2n1
- T/C [4]: 103 % of control and 109 % of control
- T/C [5]: 105 % of control and 122 % of control

Compound: CC1=CCC(=O)C=[N+]1Cc1ccccc1
- T/C (dose: 6.25 mg/kg/injection, schedule: Q01DX005 (ip), vehicle: saline): 114 % of control
- T/C (dose: 12.5 mg/kg/injection, schedule: Q01DX005 (ip), vehicle: saline): 100 % of control

Compound: CC(C)NC(=O)OCc1c(COC(=O)NC(C)C)c2n(c1-c1ccc(Cl)c(Cl)c1)CCS2(=O)=O
- T/C (dose: 25.0 mg/kg/injection, schedule: Q01DX005 (ip), vehicle: saline with Tween-80): 106 % of control
- T/C [6]: 97 % of control
- T/C [7]: 88 % of control
- T/C [8]: 86 % of control

Compound: CC(C)(O)C#CC(F)(F)C(F)(F)C(F)(F)C(F)(F)C(F)(F)C(F)(F)F
- T/C (dose: 60.0 mg/kg/injection, schedule: Q01DX005 (ip), vehicle: saline): 107 % of control
- T/C (dose: 120.0 mg/kg/injection, schedule: Q01DX005 (ip), vehicle: saline): 105 % of control
- T/C (dose: 240.0 mg/kg/injection, schedule: Q01DX005 (ip), vehicle: saline): 103 % of control

Compound: CC(CC(=O)c1ccccc1)C(Sc1ccccc1)(Sc1ccccc1)Sc1ccccc1 (stereo not given)
- T/C [4]: 93 % of control
- T/C [5]: 90 % of control
- T/C [9]: 89 % of control

Compound: Oc1c(Cl)cc(Cl)cc1CN1CCCCC1
- T/C (dose: 50.0 mg/kg/injection, schedule: Q01DX009 (ip), vehicle: suspension in saline): 91 % of control
- T/C (dose: 100.0 mg/kg/injection, schedule: Q01DX009 (ip), vehicle: suspension in saline): 98 % of control
- T/C (dose: 200.0 mg/kg/injection, schedule: Q01DX009 (ip), vehicle: suspension in saline): 91 % of control

Compound: O=c1[nH]c2ccccc2c2ccccc12
- T/C (dose: 100.0 mg/kg/injection, schedule: Q04DX003 (ip), vehicle: saline with Tween-80): 90 % of control
- T/C (dose: 200.0 mg/kg/injection, schedule: Q04DX003 (ip), vehicle: saline with Tween-80): 90 % of control
- T/C (dose: 400.0 mg/kg/injection, schedule: Q04DX003 (ip), vehicle: saline with Tween-80): 90 % of control

Compound: COc1cc2c(c3c1c(=S)c1ccccc1n3C)C=CC(C)(C)O2
- T/C [10]: 98 % of control
- T/C [11]: 98 % of control
- T/C [12]: 108 % of control

Compound: COc1ccc(SSc2ccc(OC)n[n+]2[O-])[n+]([O-])n1
- T/C (dose: 10.0 mg/kg/injection, schedule: Q01DX001 (ip), vehicle: Klucel (hydroxypropylcellulose) (HPC)): 103 % of control
- T/C (dose: 200.0 mg/kg/injection, schedule: Q01DX001 (ip), vehicle: Klucel (hydroxypropylcellulose) (HPC)): 111 % of control

Compound: O=C(NC(Cc1ccccc1)C(=O)O)OCc1ccccc1 (stereo not given)
- T/C [10]: 100 % of control
- T/C [11]: 92 % of control
- T/C (dose: 177.0 mg/kg/injection, schedule: Q01DX009 (ip), vehicle: saline with Tween-80): 107 % of control
- T/C [12]: 102 % of control
- T/C (dose: 266.0 mg/kg/injection, schedule: Q01DX009 (ip), vehicle: saline with Tween-80): 109 % of control
- T/C [13]: 116 % of control

Compound: O=C(O)Cc1sc(-c2ccccc2)nc1-c1ccc(Cl)cc1
- T/C [1]: 114 % of control
- T/C [2]: 110 % of control
- T/C [3]: 112 % of control

Compound: O=c1oc(-c2ccccc2)nnc1-c1ccccc1
- T/C [4]: 100 % of control
- T/C [5]: 101 % of control
- T/C [9]: 107 % of control

Compound: Cc1cn(C2CC(O)C(CS)O2)c(=O)[nH]c1=O (stereo not given)
- T/C [6]: 104 % of control
- T/C [7]: 105 % of control
- T/C [8]: 103 % of control

Compound: CCOC(=O)/C(C=NCC(C)(CN=C/C(C(=O)OCC)=C(/C)O)CN=C/C(C(=O)OCC)=C(/C)O)=C(\C)O (stereo not given)
- T/C [4]: 93 % of control
- T/C [5]: 90 % of control
- T/C [9]: 87 % of control

Compound: CCCC[P+](c1ccccc1)(c1ccccc1)c1ccccc1
- T/C (dose: 5.0 mg/kg/injection, schedule: Q01DX009 (ip), vehicle: saline sonified): 118 % of control
- T/C (dose: 10.0 mg/kg/injection, schedule: Q01DX009 (ip), vehicle: saline sonified): 122 % of control
- T/C (dose: 13.2 mg/kg/injection, schedule: Q01DX009 (ip), vehicle: saline sonified): 118 % of control
- T/C (dose: 20.0 mg/kg/injection, schedule: Q01DX009 (ip), vehicle: saline sonified): 118 % of control
- T/C (dose: 30.0 mg/kg/injection, schedule: Q01DX009 (ip), vehicle: saline sonified): 90 % of control

Compound: COc1c(O)ccc2c1CCCCC2=O
- T/C [2]: 103 % of control
- T/C [3]: 110 % of control
- T/C [13]: 106 % of control

Compound: CNC(=O)Oc1ccc[nH]c1=O
- T/C (dose: 16.0 mg/kg/injection, schedule: Q01DX009 (ip), vehicle: saline with Tween-80): 106 % of control and 110 % of control
- T/C (dose: 25.0 mg/kg/injection, schedule: Q01DX009 (ip), vehicle: saline): 106 % of control and 112 % of control
- T/C (dose: 25.0 mg/kg/injection, schedule: Q01DX009 (sc), vehicle: saline): 102 % of control and 109 % of control
- T/C (dose: 32.0 mg/kg/injection, schedule: Q01DX009 (ip), vehicle: saline with Tween-80): 112 % of control and 122 % of control
- T/C (dose: 50.0 mg/kg/injection, schedule: Q01DX009 (ip), vehicle: saline): 116 % of control and 120 % of control
- T/C (dose: 50.0 mg/kg/injection, schedule: Q01DX009 (sc), vehicle: saline): 109 % of control and 115 % of control
- T/C (dose: 64.0 mg/kg/injection, schedule: Q01DX009 (ip), vehicle: saline with Tween-80): 120 % of control
- T/C (dose: 100.0 mg/kg/injection, schedule: Q01DX009 (sc), vehicle: saline): 111 % of control and 113 % of control
- T/C (dose: 128.0 mg/kg/injection, schedule: Q01DX009 (ip), vehicle: saline with Tween-80): 120 % of control
- T/C (dose: 200.0 mg/kg/injection, schedule: Q01DX009 (sc), vehicle: saline): 115 % of control and 120 % of control
- T/C (dose: 400.0 mg/kg/injection, schedule: Q01DX009 (ip), vehicle: saline): 153 % of control
- T/C (dose: 400.0 mg/kg/injection, schedule: Q01DX009 (sc), vehicle: saline): 122 % of control

Compound: OC(C1=NNC(C(O)c2ccccc2)=NN1)c1ccccc1 (stereo not given)
- T/C (dose: 60.0 mg/kg/injection, schedule: Q01DX005 (ip), vehicle: saline with Tween-80): 92 % of control
- T/C (dose: 120.0 mg/kg/injection, schedule: Q01DX005 (ip), vehicle: saline with Tween-80): 100 % of control
- T/C (dose: 240.0 mg/kg/injection, schedule: Q01DX005 (ip), vehicle: saline with Tween-80): 102 % of control

Compound: COC(=O)[C@@]12OC[C@@]34[C@@H](CC5=C(C)C(=O)C(O)=C[C@]5(C)[C@H]3[C@@H](O)[C@@H]1O)OC(=O)[C@H](OC(=O)/C=C(\C)C(C)(C)OC(C)=O)[C@@H]24
- T/C (dose: 0.25 mg/kg/injection, schedule: Q01DX009 (ip), vehicle: saline + alcohol): 106 % of control
- T/C (dose: 0.5 mg/kg/injection, schedule: Q01DX009 (ip), vehicle: saline + alcohol): 110 % of control and 123 % of control
- T/C (dose: 4.0 mg/kg/injection, schedule: Q01DX009 (ip), vehicle: saline + alcohol): 157 % of control and 159 % of control
- T/C (dose: 8.0 mg/kg/injection, schedule: Q01DX009 (ip), vehicle: saline + alcohol): 175 % of control
